Measurements reported in the NIST ThermoML archive (doi:10.1021/je400178k).

Experiment: molar heat capacity at constant pressure; xn = mol fraction of the nth substance listed
Settings: 101 kPa, Liquid, Small sample (50 mg) DSC

CN1CCNCC1 [N-methylpiperazine] + O
molar heat capacity at constant pressure [J/K/mol]
Settings	x1 = 0.099	x1 = 0.1998	x1 = 0.2995	x1 = 0.4009	x1 = 0.4983	x1 = 0.6007	x1 = 0.6994	x1 = 0.7992	x1 = 0.8992	x1 = 1
298.15 K	99.4	116	128.8	141.4	153.8	166.6	179	191.4	203.6	213.9
303.15 K	100.6	117.3	130.4	143.3	155.6	168.2	180.5	192.7	204.7	214.4
308.15 K	101.6	118.6	131.9	144.8	157.1	169.7	182	194.3	205.8	215
313.15 K	102.7	119.9	133.4	146.4	158.6	171.3	183.4	195.4	206.8	215.7
318.15 K	103.7	120.8	134.6	147.7	159.8	172.7	184.7	196.7	207.8	216.4
323.15 K	104.6	122.1	136.2	149.3	161.4	174	185.7	197.5	208.5	216.9
328.15 K	105.6	123.5	137.8	151.1	163	175.3	186.9	198.5	209.2	217.3
333.15 K	106.1	124.8	139.4	153.3	165.5	177.3	188.2	198.9	209.3	217.2
338.15 K	106.6	126.1	140.9	154.4	166.8	178.4	189	198.5	208.2	215.5
343.15 K	107.3	127.3	142.4	156	168.2	179.8	190.6	200.1	209.2	216.2
348.15 K	108.2	128.5	143.8	157.6	170	181.6	192.4	202.3	211.4	217.6
353.15 K	109	129.7	145.2	159.2	171.5	183	193.8	203.7	212.7	218
